In general, IC50 refers to the concentration needed to halve the response being measured. Broadly, the EC50 is the concentration at which the effect is half-maximal.

Test [1] deals with PRMT5/MEP50 complex (Homo sapiens, UniProt O14744). Briefly: Inhibition of recombinant human fetal brain FLAG-tagged PRMT5/full length human testis 6His-tagged MEP50 expressed in baculovirus infected insect Sf9 cells using human histone H4 (1 to 15 residues) as substrate preincubated for 30 mins followed by [3H]-SAM addition.
The nature of test [2]: Antiproliferative activity against human Z138 cells assessed as inhibition of cell viability after 5 days by Cell-Titer Glo assay. The test is classed as functional, cell-based. The note with it: Z-138, 120 h.
For test [3], the target named is Protein arginine N-methyltransferase 5 (Homo sapiens, UniProt O14744). Nature of the test: Inhibition of PRMT5 in human Z138 cells assessed as decrease in di-methyl arginine levels after 96 hrs by Western blot method. The test is classed as cell-based. Background: In western blotting, separated proteins are transferred to a membrane and probed.
Chain of Protein arginine N-methyltransferase 5 (O14744 whole entry): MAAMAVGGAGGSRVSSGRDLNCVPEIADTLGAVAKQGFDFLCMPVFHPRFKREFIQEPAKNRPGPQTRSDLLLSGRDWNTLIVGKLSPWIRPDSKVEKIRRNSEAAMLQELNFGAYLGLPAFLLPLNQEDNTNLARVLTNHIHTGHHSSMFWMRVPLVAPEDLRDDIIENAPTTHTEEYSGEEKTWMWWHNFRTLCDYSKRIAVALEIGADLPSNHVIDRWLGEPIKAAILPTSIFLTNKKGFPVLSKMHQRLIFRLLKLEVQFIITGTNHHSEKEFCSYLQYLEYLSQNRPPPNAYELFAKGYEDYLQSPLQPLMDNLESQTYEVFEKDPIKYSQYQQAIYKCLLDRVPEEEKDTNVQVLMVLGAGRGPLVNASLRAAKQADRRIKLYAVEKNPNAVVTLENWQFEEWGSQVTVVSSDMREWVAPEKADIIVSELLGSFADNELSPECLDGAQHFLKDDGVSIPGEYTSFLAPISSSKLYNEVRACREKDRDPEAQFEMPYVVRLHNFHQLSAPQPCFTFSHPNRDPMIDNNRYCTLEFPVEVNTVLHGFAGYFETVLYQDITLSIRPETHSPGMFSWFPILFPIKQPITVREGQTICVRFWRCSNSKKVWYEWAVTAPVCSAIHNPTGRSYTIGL

Chain of PRMT5/MEP50 complex (O14744 whole entry, the tested form may be a part): as the sequence (O14744 whole entry) above
Chain of PRMT5/MEP50 complex (Q9BQA1 whole entry, further chain, the tested form may be a part): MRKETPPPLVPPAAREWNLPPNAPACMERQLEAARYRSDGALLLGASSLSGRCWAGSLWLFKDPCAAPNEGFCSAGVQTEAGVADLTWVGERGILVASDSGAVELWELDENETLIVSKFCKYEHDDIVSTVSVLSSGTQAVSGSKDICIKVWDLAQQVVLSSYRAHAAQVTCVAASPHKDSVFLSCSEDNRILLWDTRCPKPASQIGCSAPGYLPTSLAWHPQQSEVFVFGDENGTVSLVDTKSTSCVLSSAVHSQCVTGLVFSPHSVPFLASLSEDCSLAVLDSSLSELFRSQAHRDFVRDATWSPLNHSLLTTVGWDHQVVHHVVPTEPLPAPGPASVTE

For `OC(COCC1CCCO1)CN1CCc2ccccc2C1` (stereo not drawn), the IC50 in test [1] lay within 10000 to 40000 nM. Moreover, the EC50 in test [2] is more than 40 µM.
Turning to `OC(COC1CCCCCC1)CN1CCc2ccccc2C1` (stereo not drawn), the IC50 in test [1] is 1000 to 10000 nM. Further, the half-maximal effective concentration (EC50) in test [2] was more than 40 µM.
In the case of `OC(COCC1CCNC1)CN1CCc2ccccc2C1` (stereo not drawn), the 50% inhibitory concentration (IC50) in test [1] was more than 40000 nM. Besides, the EC50 in test [2] was more than 40 µM.
`O=C(NCC(O)CN1CCc2ccccc2C1)c1cccc(NC2CCOC2)c1` (stereo not drawn): the IC50 in test [1] is less than 100 nM. Also, in test [3], the EC50 lay within 101 to 1000 nM.
As to `CCCCNCc1cccc(COCC(O)CN2CCc3ccccc3C2)c1` (stereo not drawn), in test [1], the IC50 was in the range of 101 to 1000 nM. Further, the EC50 in test [2] was more than 20 µM.
For `Cc1nn(-c2ccccc2)c(C)c1COCC(O)CN1CCc2ccccc2C1` (stereo not drawn), in that order: 1000 to 10000 nM and more than 40 µM.
As for `O=C1CN(c2ccccc2F)CCN1CC(O)CN1CCc2ccccc2C1` (stereo not drawn), the EC50 in test [3] was more than 50000 nM.
As for `Cc1cn(C)c2cccc(OCC(=O)NCC(O)CN3CCc4ccccc4C3)c12` (stereo not drawn), the IC50 in test [1] was less than 100 nM. The EC50 in test [3] is 101 to 1000 nM.
`OC(COc1cccc(-c2ccccc2F)c1)CN1CCc2ccccc2C1` (stereo not drawn): the half-maximal inhibitory concentration (IC50) in test [1] was 101 to 1000 nM. The EC50 in test [3] fell in the range of 1000 to 10000 nM.
`Cc1ccccc1N1CCN(CC(O)CN2CCc3ccccc3C2)C(=O)C1` (stereo not drawn): the EC50 in test [3] was more than 50000 nM.
On to `OC(COC1CCNCC1)CN1CCc2ccccc2C1` (stereo not drawn), for which the IC50 in test [1] was more than 40000 nM. Also, in test [2], the EC50 was more than 40 µM.
`O=C(Nc1cccc(OCC(O)CN2CCc3ccccc3C2)c1)c1cccnn1` (stereo not drawn): in test [1], the IC50 lay within 1000 to 10000 nM. In addition, the EC50 in test [3] lay in the range of 1000 to 10000 nM.
Consider `CN1CCC(OCC(O)CN2CCc3ccccc3C2)C1` (stereo not drawn), for which the IC50 in test [1] was more than 40000 nM. The EC50 in test [2] was more than 40 µM.
The like results for `CC(C(O)COc1cccc(CNC2CCCC2)c1)N1CCc2ccccc2C1` (stereo not drawn) were, in that order, 1000 to 10000 nM and more than 40 µM.
In the case of `O=C(Nc1cccc(OCC(O)CN2CCc3ccccc3C2)c1)c1cccnc1` (stereo not drawn), the half-maximal inhibitory concentration (IC50) in test [1] was in the range of 1000 to 10000 nM. In test [3], the EC50 lay in the range of 1000 to 10000 nM.
In the case of `OC(COCC1CCCCO1)CN1CCc2ccccc2C1` (stereo not drawn), the IC50 in test [1] was more than 40000 nM. Besides, the EC50 in test [2] is more than 40 µM.
On to `Cn1nccc1-c1cccc(CC(=O)NCC(O)CN2CCc3ccccc3C2)c1` (stereo not drawn), for which, in test [1], the IC50 is 101 to 1000 nM. Also, the EC50 in test [3] lay in the range of 101 to 1000 nM.
On to `CC(C)n1ccc(-c2ccc(OCC(O)CN3CCc4ccccc4C3)cc2)n1` (stereo not drawn), for which the IC50 in test [1] lay in the range of 1000 to 10000 nM. In test [2], the EC50 was more than 40 µM.
With `CCn1ccnc1COCC(O)CN1CCc2ccccc2C1` (stereo not drawn), the IC50 in test [1] is more than 40000 nM. Besides, the EC50 in test [2] was more than 40 µM.
As for `O=C(NCC(O)CN1CCc2ccccc2C1)c1cccc(OC2CCOCC2)c1` (stereo not drawn), the IC50 in test [1] was in the range of 101 to 1000 nM. In addition, in test [3], the EC50 was in the range of 101 to 1000 nM.
On to `Cn1ccnc1-c1ccccc1OCC(=O)NCC(O)CN1CCc2ccccc2C1` (stereo not drawn), for which the IC50 in test [1] lay within 101 to 1000 nM. Moreover, the EC50 in test [3] fell in the range of 1000 to 10000 nM.
Regarding `OC(COCc1c(Cl)cccc1Cl)CN1CCc2ccccc2C1` (stereo not drawn), the IC50 in test [1] was 1000 to 10000 nM. The EC50 in test [2] lay within 10 to 40 µM.
Take `O=C(c1ccc(Cn2ccc(-c3ccc(OCC(O)CN4CCc5ccccc5C4)cc3)n2)cc1)N1CCCC1` (stereo not drawn): in test [1], the IC50 was 1000 to 10000 nM. In addition, in test [2], the EC50 was 10 to 40 µM.
As for `O=C(COc1ccccc1F)NCC(O)CN1CCc2ccccc2C1` (stereo not drawn), the IC50 in test [1] is 101 to 1000 nM. For the same compound, the EC50 in test [3] was in the range of 101 to 1000 nM; in test [2] it was 10 to 50 µM.
`Cn1cc2ccc(-c3cccc(OCC(O)CN4CCc5ccccc5C4)c3)cc2n1` (stereo not drawn): the IC50 in test [1] lay within 101 to 1000 nM. The EC50 in test [3] is more than 20000 nM.
`OC(COC1CCCNC1)CN1CCc2ccccc2C1` (stereo not drawn): the IC50 in test [1] was more than 40000 nM. In test [2], the EC50 was more than 40 µM.
For `N#Cc1cccc(OCC(=O)NCC(O)CN2CCc3ccccc3C2)c1` (stereo not drawn), the IC50 in test [1] is 101 to 1000 nM. Moreover, the values for the EC50 in test [3] and in test [2] were 101 to 1000 nM and 10 to 50 µM, respectively.
For `CC(C)(C)OC(=O)N1CC(OCC(O)CN2CCc3ccccc3C2)C1` (stereo not drawn), in test [1], the IC50 was 1000 to 10000 nM. In addition, the 50% effective concentration (EC50) in test [2] is more than 40 µM.
Turning to `O=c1cc(-c2ccccc2)ccn1C[C@H](O)CN1CCc2ccccc2C1`, the EC50 in test [3] is more than 50000 nM.
Consider `O=C(Cc1cccc2cccnc12)NCC(O)CN1CCc2ccccc2C1` (stereo not drawn), for which the IC50 in test [1] was in the range of 101 to 1000 nM. Besides, the EC50 in test [3] fell in the range of 1000 to 10000 nM.
In the case of `Cc1ccc(OCC(=O)NCC(O)CN2CCc3ccccc3C2)cc1` (stereo not drawn), the IC50 in test [1] is 101 to 1000 nM. Moreover, the EC50 in test [3] lay within 10000 to 50000 nM; in test [2], 10 to 50 µM.
As to `COc1cc2c(cc1OC)CN(CC(O)COc1cccc(CNC3CCCC3)c1)CC2` (stereo not drawn), in test [1], the IC50 is more than 40000 nM. Further, the EC50 in test [2] fell in the range of 10 to 40 µM.
For the compound `OC(COC1CCOCC1)CN1CCc2ccccc2C1` (stereo not drawn), the half-maximal inhibitory concentration (IC50) in test [1] was 10000 to 40000 nM. Moreover, the EC50 in test [2] is more than 40 µM.
Regarding `COc1ccc(OCC(=O)NCC(O)CN2CCc3ccccc3C2)cc1` (stereo not drawn), the IC50 in test [1] was in the range of 101 to 1000 nM. In addition, the figures for the concentration for a half-maximal effect (EC50) in test [3] and in test [2] were 101 to 1000 nM and 10 to 50 µM, respectively.
On to `O=C1CN(c2ccc(CO)cc2)CCN1CC(O)CN1CCc2ccccc2C1` (stereo not drawn), for which the IC50 in test [1] is 101 to 1000 nM. Besides, in test [3], the EC50 fell in the range of 1000 to 10000 nM.
For `O=C1CN(c2cccc(Cl)c2)CCN1CC(O)CN1CCc2ccccc2C1` (stereo not drawn), in test [1], the IC50 is less than 100 nM. Moreover, the EC50 in test [3] was in the range of 1000 to 10000 nM.

These data come from ChEMBL document CHEMBL3879915, “Methods of inhibiting PRMT5” (2014).
